The structures appear in SMILES notation. pIC50: −log10 of the molar value.

What is called pIC50 is the negative decadic logarithm of the IC50, by convention in mol/L.

The target of test [1] is human CYP4F2 (Homo sapiens (Human), UniProt P78329). The experiment in a line: Inhibition test against 20-HETE producing enzyme CYP4F2 (luciferine derivative, luminescence). It is filed as biochemical. The essentials: (§1)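 IC50 derived from luminescence after 60 min at room temperature with membrane fractions of E. coli expressing each human CYP (100 μg/mL protein). For CYP4A11, 60 μM luciferin derivative in 100 mM Tris-HCl pH 7.5 with NADPH-regenerating system; for CYP4F2, 2.5 μM substrate, 1 mM NADPH, 50 mM KPO4 pH 7.4.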
human CYP4F2, sequence (P78329 5-520): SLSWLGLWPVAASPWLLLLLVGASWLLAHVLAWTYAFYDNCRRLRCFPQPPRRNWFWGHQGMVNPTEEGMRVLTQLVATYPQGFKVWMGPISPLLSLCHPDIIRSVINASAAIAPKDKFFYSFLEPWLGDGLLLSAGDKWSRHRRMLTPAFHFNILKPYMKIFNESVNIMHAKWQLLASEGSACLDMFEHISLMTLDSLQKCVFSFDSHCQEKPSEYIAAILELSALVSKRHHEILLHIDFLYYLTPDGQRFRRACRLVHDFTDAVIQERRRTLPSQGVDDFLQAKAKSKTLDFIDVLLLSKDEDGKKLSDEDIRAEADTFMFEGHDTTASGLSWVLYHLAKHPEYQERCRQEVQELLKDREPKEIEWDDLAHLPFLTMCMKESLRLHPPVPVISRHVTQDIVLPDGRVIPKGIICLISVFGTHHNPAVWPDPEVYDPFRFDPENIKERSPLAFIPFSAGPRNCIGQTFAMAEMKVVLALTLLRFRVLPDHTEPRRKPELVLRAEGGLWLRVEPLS

Test [2] addresses human CYP4A11 (Homo sapiens (Human), UniProt Q02928). The experiment in a line: Inhibition test against 20-HETE producing enzyme CYP4A11 (luciferine derivative, luminescence). Type of test: biochemical. The essentials: as §1
Where [3] appears, read: E. coli membrane fraction expressing human CYP4F2, 2.5 μM luciferine derivative, room temperature 60 minutes.
The mark [4] stands for this setting: E. coli membrane fraction expressing human CYP4A11, 60 μM luciferine derivative, room temperature 60 minutes.
[5] abbreviates: human CYP4F2, luciferine derivative, luminescence.
Where [6] appears, read: human CYP4A11, luciferine derivative, luminescence.

human CYP4A11, sequence (Q02928 5-519): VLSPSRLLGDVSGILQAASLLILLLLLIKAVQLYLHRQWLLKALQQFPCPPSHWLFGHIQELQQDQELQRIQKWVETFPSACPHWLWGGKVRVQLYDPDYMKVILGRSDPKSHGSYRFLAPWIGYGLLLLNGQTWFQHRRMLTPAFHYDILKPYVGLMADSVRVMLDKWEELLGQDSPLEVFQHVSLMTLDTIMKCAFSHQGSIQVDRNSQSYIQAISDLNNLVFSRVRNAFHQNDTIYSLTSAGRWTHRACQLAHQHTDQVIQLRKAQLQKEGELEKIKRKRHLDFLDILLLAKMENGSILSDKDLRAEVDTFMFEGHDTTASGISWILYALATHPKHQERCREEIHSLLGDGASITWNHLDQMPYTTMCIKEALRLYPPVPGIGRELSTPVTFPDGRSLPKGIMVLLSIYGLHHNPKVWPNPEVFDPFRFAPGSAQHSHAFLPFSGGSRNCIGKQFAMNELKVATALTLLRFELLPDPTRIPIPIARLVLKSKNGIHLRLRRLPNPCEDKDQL

For the compound `O=C(O)C1CC1CCCOc1ccc(-c2ccn[nH]2)nc1` (centres unmarked) [Example 1-28], the pIC50 in test [1] (setting [3]) was 4.72; in test [2] (setting [4]) it was 7.13.

Consider `O=C(O)c1ccc(CCCCOc2ccc(-c3ccn[nH]3)nc2)cc1` [Example 1-18], for which the negative-log IC50 (pIC50) in test [1] (setting [3]) is 6.48; in test [2] (setting [4]) it was 7.85.

`CC(C)(COc1cccc(CCCOc2ccc(-c3ccn[nH]3)nc2)n1)C(=O)O` [Example 71-41]: the pIC50 was 6.18 in test [1] (setting [5]) and 6.80 in test [2] (setting [6]).

On to `O=C(NC12CC(C(=O)O)(C1)C2)c1cccc(COc2ccc(-c3ccn[nH]3)nc2)c1` [Example 45-23], for which the pIC50 in test [1] (setting [5]) was 5.41; in test [2] (setting [6]), 6.15.

Take `Oc1ccccc1CCOc1ccc(-c2ccn[nH]2)nc1` [Example 13-2]: the negative-log IC50 (pIC50) in test [1] (setting [3]) was 7.89; in test [2] (setting [4]), 6.40.

Consider `O=C(O)C1(OCCCCCCCOc2ccc(-c3ccn[nH]3)nc2)CC1` [Example 71-5], for which the pIC50 in test [1] (setting [5]) was 7.41; in test [2] (setting [6]), 7.02.

With `O=C(O)C1CCN(S(=O)(=O)c2cccc(COc3ccc(-c4ccn[nH]4)nc3)c2)C1` (centres unmarked) [Example 22-10], the negative-log IC50 (pIC50) in test [1] (setting [3]) was 5.70; in test [2] (setting [4]), 7.62.

In the case of `O=C(O)CCc1ccc(CCOc2ccc(-c3ccn[nH]3)nc2)cc1` [Example 1-15], the figures for the pIC50 in test [1] (setting [3]) and in test [2] (setting [4]) were 6.17 and 6.68, respectively.

Take `O=C(O)c1nc2c(o1)CN(C(=O)c1cccc(COc3ccc(-c4ccn[nH]4)nc3)c1)C2` [Example 45-42]: the pIC50 in test [1] (setting [5]) was 7.47; in test [2] (setting [6]), 6.35.

On to `O=C(O)C1(OCCOCCCCOc2ccc(-c3ccn[nH]3)nc2)CCCC1` [Example 2-4], for which the figures for the negative logarithm of the IC50 (pIC50) in test [1] (setting [3]) and in test [2] (setting [4]) were 5.74 and 6.70, respectively.

In the case of `O=C(NCC1(C(=O)O)CC1)c1cccc(COc2ccc(-c3ccn[nH]3)nc2)c1` [Example 45-4], the negative logarithm of the IC50 (pIC50) was 5.19 in test [1] (setting [5]) and 7.07 in test [2] (setting [6]).

As for `O=C(O)[C@H]1COc2ccc(COc3ccc(-c4ccn[nH]4)nc3)cc2C1` [Example 69-2-2], the negative-log IC50 (pIC50) in test [1] (setting [5]) is 5.96; in test [2] (setting [6]), 7.44.

Consider `O=C(O)CCCCc1ccccc1COc1ccc(-c2ccn[nH]2)nc1` [Example 1-12], for which the pIC50 in test [1] (setting [3]) was less than 4.30; in test [2] (setting [4]), 6.77.

Regarding `CS(=O)(=O)NC(=O)c1cccc(COc2ccc(-c3ccn[nH]3)nc2)c1` [Example 44-1, N-Methylsulfonyl-3-[[6-(1H-pyrazol-5-yl)-3-pyridinyl]oxymethyl]benzamide], the figures for the negative logarithm of the IC50 (pIC50) in test [1] (setting [5]) and in test [2] (setting [6]) were 5.12 and 7.31, respectively.

For `O=C(O)[C@H]1CCc2ccc(COc3ccc(-c4ccn[nH]4)nc3)cc2O1` [Example 69-3-2], the negative-log IC50 (pIC50) in test [1] (setting [5]) was 6.52; in test [2] (setting [6]), 6.66.

With `c1cc(-c2ccc(OCCCCCc3nnn[nH]3)cn2)[nH]n1` [Example 62-1, 2-(1H-Pyrazol-5-yl)-5-[5-(1H-tetrazol-5-yl)pentoxy]pyridine], the pIC50 in test [1] (setting [3]) was 5.46; in test [2] (setting [4]), 7.55.

Take `O=C(N[C@H]1CC[C@@H](C(=O)O)CC1)c1cccc(COc2ccc(-c3ccn[nH]3)nc2)c1` [Example 45-19]: the pIC50 is 4.89 in test [1] (setting [5]) and 6.00 in test [2] (setting [6]).

With `CN(C)C(=O)[C@H]1C[C@](O)(c2cc(COc3ccc(-c4ccn[nH]4)nc3)ccc2F)C1` [Example 42-22], the negative-log IC50 (pIC50) in test [1] (setting [5]) is 7.00; in test [2] (setting [6]) it was 6.57.

As for `O=C(O)C12CC(COc3ccc(-c4ccn[nH]4)nc3)(C1)C2` [Example 8-17], the negative logarithm of the IC50 (pIC50) was 4.66 in test [1] (setting [3]) and 6.28 in test [2] (setting [4]).

On to `O=C(CCc1cccc(COc2ccc(-c3ccn[nH]3)nc2)c1)NC[C@@H]1CCCO1` [Example 43-14], for which the pIC50 is 7.74 in test [1] (setting [5]) and 7.28 in test [2] (setting [6]).

With `O=C(CCc1cccc(COc2ccc(-c3ccn[nH]3)nc2)c1)N1CC(F)C1` [Example 43-1, 1-(3-Fluoro-1-azetidinyl)-3-[3-[[6-(1H-pyrazol-5-yl)-3-pyridinyl]oxymethyl]phenyl]-1-propanone], the negative-log IC50 (pIC50) is 7.28 in test [1] (setting [5]) and 7.24 in test [2] (setting [6]).

On to `O=C(O)C1(CCCCOc2ccc(-c3ccn[nH]3)nc2)CCC1` [Example 1-33], for which the figures for the pIC50 in test [1] (setting [3]) and in test [2] (setting [4]) were 4.82 and 7.13, respectively.

On to `CC(C)(Oc1cccc(CCOc2ccc(-c3ccn[nH]3)nc2)c1)C(=O)O` [Example 71-31], for which the negative logarithm of the IC50 (pIC50) in test [1] (setting [5]) was 4.82; in test [2] (setting [6]) it was 6.52.

Take `O=C(O)C1CC1c1ccc(COc2ccc(-c3ccn[nH]3)nc2)c(F)c1` (centres unmarked) [Example 71-24]: the results for the negative logarithm of the IC50 (pIC50) in test [1] (setting [5]) and in test [2] (setting [6]) were 5.68 and 7.14, respectively.

For the compound `CNC(=O)Cc1cccc(COc2ccc(-c3ccn[nH]3)nc2)c1` [Example 42-4], the negative logarithm of the IC50 (pIC50) in test [1] (setting [3]) is 7.92; in test [2] (setting [4]) it was 6.27.

For the compound `Cc1cc(OCC23CCC(C(=O)O)(CC2)CC3)cnc1-c1ccn[nH]1` [Example 1-22], the negative-log IC50 (pIC50) in test [1] (setting [3]) was less than 4.30; in test [2] (setting [4]) it was 7.42.

On to `CS(=O)(=O)NCCCCCCOc1ccc(-c2ccn[nH]2)nc1` [Example 19-1, N-[6-[[6-(1H-Pyrazol-5-yl)-3-pyridinyl]oxy]hexyl]methanesulfonamide], for which the pIC50 in test [1] (setting [3]) was 7.66; in test [2] (setting [4]), 5.77.

Turning to `CC(C)(Oc1cccc(COc2ccc(-c3ccn[nH]3)nc2)c1)C(=O)O` [Example 18-5], the negative logarithm of the IC50 (pIC50) in test [1] (setting [3]) is 5.28; in test [2] (setting [4]), 7.49.

On to `CS(=O)(=O)N[C@H]1CC[C@@H](Oc2ccc(-c3ccn[nH]3)nc2)CC1` [Example 57-2], for which the pIC50 in test [1] (setting [3]) was 5.14; in test [2] (setting [4]), 5.17.

On to `O=C(O)c1ccc(CNC(=O)c2cccc(COc3ccc(-c4ccn[nH]4)nc3)c2)cc1` [Example 45-24], for which the pIC50 is 6.08 in test [1] (setting [5]) and 7.25 in test [2] (setting [6]).

Turning to `O=C(O)CC[C@H]1CCC[C@@H](COc2ccc(-c3ccn[nH]3)nc2)C1` (racemic) [Example 2-6, cis-3-[3-[[6-(1H-Pyrazol-5-yl)-3-pyridinyl]oxymethyl]cyclohexyl]propanoic Acid (Racemate)], the negative-log IC50 (pIC50) in test [1] (setting [3]) was 5.89; in test [2] (setting [4]), 7.60.

Regarding `O=C(CCc1cccc(COc2ccc(-c3ccn[nH]3)nc2)c1)N1CC(F)(F)C1` [Example 43-2], the pIC50 is 7.32 in test [1] (setting [5]) and 7.23 in test [2] (setting [6]).

In the case of `CC(C)(CCOc1ccc(-c2ccn[nH]2)nc1)CCC(=O)O` [Example 7-1, 4,4-Dimethyl-6-[[6-(1H-pyrazol-5-yl)-3-pyridinyl]oxy]hexanoic Acid], the negative-log IC50 (pIC50) in test [1] (setting [3]) was 4.32; in test [2] (setting [4]), 7.47.

`O=C(O)CCc1ccccc1CCCOc1ccc(-c2ccn[nH]2)nc1` [Example 1-17]: the negative logarithm of the IC50 (pIC50) is 5.29 in test [1] (setting [3]) and 7.80 in test [2] (setting [4]).

As to `CC(C)(OCCOCCCCOc1ccc(-c2ccn[nH]2)nc1)C(=O)O` [Example 1-67], the pIC50 in test [1] (setting [3]) was 5.00; in test [2] (setting [4]), 6.92.

In the case of `O=C(O)[C@@H]1CCc2cc(CCOc3ccc(-c4ccn[nH]4)nc3)ccc2O1` [Example 71-8-1], the pIC50 in test [1] (setting [5]) is 6.37; in test [2] (setting [6]) it was 6.00.

Turning to `O=C(O)Cc1cccc(COc2ccc(-c3ccns3)nc2)c1` [Example 39-1, 2-[3-[[6-(5-Isothiazolyl)-3-pyridinyl]oxymethyl]phenyl]acetic Acid], the pIC50 is 4.89 in test [1] (setting [3]) and 8.28 in test [2] (setting [4]).

Turning to `O=C1CN(CCCCOc2ccc(-c3ccn[nH]3)nc2)C(=O)N1` [Example 61-2, 1-[4-[[6-(1-H-pyrazol-5-yl)-3-pyridinyl]oxy]butyl]imidazolidine-2,4-dione], the negative logarithm of the IC50 (pIC50) in test [1] (setting [3]) is 6.55; in test [2] (setting [4]) it was 6.12.

`CC(C)(Cc1ccc(COc2ccc(-c3ccn[nH]3)nc2)cc1)C(=O)O` [Example 71-25]: the negative logarithm of the IC50 (pIC50) in test [1] (setting [5]) is 5.32; in test [2] (setting [6]), 6.52.

In the case of `O=C(O)Cc1cccc(COc2ccc(-c3cncs3)nc2)c1` [Example 40-2], the pIC50 in test [1] (setting [3]) is 5.09; in test [2] (setting [4]) it was 8.16.

In the case of `CC(C)(Cc1ccc(CCOc2ccc(-c3ccn[nH]3)nc2)cn1)C(=O)O` [Example 71-28], the pIC50 in test [1] (setting [5]) was 5.21; in test [2] (setting [6]), 5.80.

With `CS(=O)(=O)NC(=O)NCCCCOc1ccc(-c2ccn[nH]2)nc1` [Example 61-1, 1-Methylsulfonyl-3-[4-[[6-(1-H-pyrazol-5-yl)-3-pyridinyl]oxy]butyl]urea], the pIC50 in test [1] (setting [3]) is 5.10; in test [2] (setting [4]), 7.14.

For `O=C(O)C1(CCCCCCOc2ccc(-c3ccn[nH]3)nc2)CCCC1` [Example 1-46, 1-[6-[[6-(1H-Pyrazol-5-yl)-3-pyridinyl]oxy]hexyl]-1-cyclopentanecarboxylic Acid], the negative-log IC50 (pIC50) in test [1] (setting [3]) is 6.43; in test [2] (setting [4]), 7.18.

Turning to `O=C(O)C1(Cc2cccc(COc3ccc(-c4ccn[nH]4)nc3)c2F)CC1` [Example 72-7], the negative-log IC50 (pIC50) in test [1] (setting [5]) is 4.82; in test [2] (setting [6]), 7.85.

`O=C(O)CC1CN(C(=O)c2cccc(COc3ccc(-c4ccn[nH]4)nc3)c2)C1` [Example 45-41]: the pIC50 was 5.74 in test [1] (setting [5]) and 6.70 in test [2] (setting [6]).

As for `O=C(O)C1CCc2ccc(COc3ccc(-c4[nH]ncc4Cl)nc3)cc2O1` (single isomer, unassigned) [Example 75-8], the pIC50 in test [1] (setting [5]) and in test [2] (setting [6]) was 7.17 in each case.

Regarding `CN(C(=O)c1cccc(COc2ccc(-c3ccn[nH]3)nc2)c1)S(C)(=O)=O` [Example 44-2], the pIC50 was 7.14 in test [1] (setting [5]) and 6.47 in test [2] (setting [6]).

For `CN(C(=O)CCc1cccc(COc2ccc(-c3ccn[nH]3)nc2)c1)S(C)(=O)=O` [Example 44-6], the values for the pIC50 in test [1] (setting [5]) and in test [2] (setting [6]) were 7.35 and 6.64, respectively.

Turning to `O=C(O)c1ccnc(CCCOc2ccc(-c3ccn[nH]3)nc2)c1` [Example 29-2, 2-[3-[[6-(1H-Pyrazol-5-yl)-3-pyridinyl]oxy]propyl]-4-pyridinecarboxylic Acid], the negative logarithm of the IC50 (pIC50) in test [1] (setting [3]) was 5.57; in test [2] (setting [4]) it was 5.89.

The values are drawn from patent publication US11365192B2, “Pyridine compound substituted with azole” (TAISHO PHARMACEUTICAL CO., LTD., priority 2017, dated 2022).
